Series [1] has as its target T1, Serotonin 5-HT2A receptor (Rattus norvegicus, UniProt P14842).
T1 construct: from tissue; host or cells: Wistar rat brain, frontal cortex membranes
In words: Serotonin 5-HT2A receptor binding assay ([3H]-Ketanserin). Particulars: Serotonin 5-HT2A receptor binding test, rat frontal cortex membrane, Ki calculated from IC50 by Cheng-Prussoff formula. The procedure, abridged:
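Rat frontal cortex membranes incubated with [3H]-ketanserin (final 1 to 3 nM) in 50 mM Tris-HCl pH 7.4, 1% DMSO, 37° C. for 20 minutes; bound radioactivity counted after filtration.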

The test system of series [2] is serotonin (5-HT) uptake by rat brain synaptosome. Briefly: Serotonin (5-HT) uptake inhibitory activity by rat brain synaptosome. Type of series: biochemical. Particulars: test compound 300 nM, tritium labeled 5-HT 8 nM, 10 minutes uptake at 37° C. Here is the method:
Measurement of serotonin (5-HT) uptake inhibitory activity of a test compound by rat brain synaptosome
Wistar male rats were decapitated, the brain was retrieved and frontal cortex was dissected out, and it was homogenized in 0.32 M sucrose solution of a weight 20 times of the weight of the tissue using a Potter type homogenizer. The homogenate was centrifuged at 4° C., 1,000×g for 10 minutes, the obtained supernatant was further centrifuged at 4° C., 20,000×g for 20 minutes, and the pellet was suspended in an incubation buffer (20 mM Hepes buffer (pH 7.4) containing 10 mM glucose, 145 mM sodium chloride, 4.5 mM potassium chloride, 1.2 mM magnesium chloride, 1.5 mM calcium chloride), which was used as crude synaptosome fraction.
5-HT uptake reaction was performed in a volume of 200 μl using a 96-well round bottom plate and pargyline (final concentration 10 μM) and sodium ascorbate (final concentration 0.2 mg/ml) were contained in the incubation buffer upon reaction and used.
Incubation buffer (total counting), non-labeled 5-HT (final concentration 10 μM, non-specific counting) and the diluted test compound (final concentration 300 nM) were added to each well. One-tenth quantity of the final volume of the synaptosome fraction was added and after preincubated at 37° C. for 10 minutes, tritium labeled 5-HT solution (final concentration 8 nM) was added and uptake reaction was started at 37° C. The uptake time was 10 minutes and the reaction was terminated by vacuum filtration through a 96-well fiber glass filter paper plate, and after the filter paper was washed with cold normal saline, it was dried enough and Microscint0 (Perkin-Elmer) was added to the filter and remaining radioactivity on the filter was measured.
Serotonin uptake inhibitory activity (%) was calculated from the radioactivity of total counting as 100%, of non-specific counting as 0%, and of counting obtained with test compound. % of inhibition of 5-HT(%)=100−[(Count obtained with test compound−Nonspecific count (0% Uptake))/(Total count (100% Uptake)−Nonspecific count (0% Uptake))]×100 The results are shown in the next Table 314.

Another series concerns the target T2, Dopamine D2 receptor (Rattus norvegicus, UniProt P61169).
T2 construct: from tissue; host or cells: Wistar rat brain, corpus striatum membranes
In words: Dopamine D2 receptor binding assay ([3H]-raclopride). Conditions: Dopamine D2 receptor binding test, rat corpus striatum membrane, Ki calculated from IC50 by Cheng-Prussoff formula. In a few lines: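 Wistar male rat striatal membranes incubated with [3H]-raclopride (final 1 to 2 nM) in 50 mM Tris-HCl with NaCl, KCl, CaCl2, MgCl2, pH 7.4, 1% DMSO, 1 h at room temperature; filtration and scintillation counting. Nonspecific binding with 10 μM (+)-butaclamol; IC50 converted to Ki by Cheng-Prussoff.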

Series [3] addresses Human recombinant dopamine D2 receptor (Homo sapiens, UniProt P14416). Particulars: forskolin-stimulated D2 receptor expressing CHO cells; well without test compound = 100%. How it is done: Partial agonistic activity on dopamine D2 receptor using D2 receptor expression cells
Partial agonistic activity on dopamine D2 receptor was evaluated by quantitatively determining cyclic AMP production inhibitory effect of a test compound in dopamine D2 receptor expression cells in which adenosine 3′,5′-cyclic monophosphate (cyclic AMP) production was induced by forskolin stimulation.
Human recombinant dopamine D2 receptor expressing Chinese hamster ovary/DHFR(−) cells were cultured in a culture medium (Iscove's Modified Dulbecco's Medium (IMDM culture medium), 10% fetal bovine serum, 50 I.U./ml penicillin, 50 μg/ml streptomycin, 200 μg/ml geneticin, 0.1 mM sodium hypoxanthine, 16 μM thymidine) at 37° C. and 5% carbon dioxide condition. Cells were seeded at 10^4 cells/well on a 96-well microtiter plate coated with poly-L-lysine and grown under the same condition for 2 days. Each well was washed with 100 μl of a culture medium (IMDM culture medium, 0.1 mM sodium hypoxanthine, 16 μM thymidine).

T2 sequence (P61169 whole entry): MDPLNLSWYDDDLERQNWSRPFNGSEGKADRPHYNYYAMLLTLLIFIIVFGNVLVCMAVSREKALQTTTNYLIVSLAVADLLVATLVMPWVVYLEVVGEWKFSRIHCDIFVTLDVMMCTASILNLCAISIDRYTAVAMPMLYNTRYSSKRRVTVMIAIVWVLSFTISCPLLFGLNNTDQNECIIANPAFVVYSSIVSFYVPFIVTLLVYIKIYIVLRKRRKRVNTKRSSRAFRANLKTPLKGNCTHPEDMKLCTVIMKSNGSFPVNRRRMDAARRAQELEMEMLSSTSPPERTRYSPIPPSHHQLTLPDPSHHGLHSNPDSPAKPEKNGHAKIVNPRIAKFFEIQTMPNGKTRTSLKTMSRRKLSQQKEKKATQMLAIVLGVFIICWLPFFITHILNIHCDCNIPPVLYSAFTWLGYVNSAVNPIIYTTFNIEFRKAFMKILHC
T1 sequence (P14842 whole entry): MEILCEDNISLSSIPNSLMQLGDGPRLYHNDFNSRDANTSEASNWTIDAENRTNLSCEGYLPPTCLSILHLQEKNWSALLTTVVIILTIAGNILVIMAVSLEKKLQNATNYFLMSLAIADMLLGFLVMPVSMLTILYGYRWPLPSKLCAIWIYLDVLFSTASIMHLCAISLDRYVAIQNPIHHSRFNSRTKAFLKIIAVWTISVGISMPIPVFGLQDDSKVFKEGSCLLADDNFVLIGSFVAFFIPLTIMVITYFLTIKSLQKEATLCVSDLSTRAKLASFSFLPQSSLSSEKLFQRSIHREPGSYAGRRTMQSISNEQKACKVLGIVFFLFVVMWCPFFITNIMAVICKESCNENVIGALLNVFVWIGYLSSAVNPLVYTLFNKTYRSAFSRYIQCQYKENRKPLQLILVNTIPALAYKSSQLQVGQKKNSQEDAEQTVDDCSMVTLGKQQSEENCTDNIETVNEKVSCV
Sequence of Human recombinant dopamine D2 receptor (P14416 whole entry): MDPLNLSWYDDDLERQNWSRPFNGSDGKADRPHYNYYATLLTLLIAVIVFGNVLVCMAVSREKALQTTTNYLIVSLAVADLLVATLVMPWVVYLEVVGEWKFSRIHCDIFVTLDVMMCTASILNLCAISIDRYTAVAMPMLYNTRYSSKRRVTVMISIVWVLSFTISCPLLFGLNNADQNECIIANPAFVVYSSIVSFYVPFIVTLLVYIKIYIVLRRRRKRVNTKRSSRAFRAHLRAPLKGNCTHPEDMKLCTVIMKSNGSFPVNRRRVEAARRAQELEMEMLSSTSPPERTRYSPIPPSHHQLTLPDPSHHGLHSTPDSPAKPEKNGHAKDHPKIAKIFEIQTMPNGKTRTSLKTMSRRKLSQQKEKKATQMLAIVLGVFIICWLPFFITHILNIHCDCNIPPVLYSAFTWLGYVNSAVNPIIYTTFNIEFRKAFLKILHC

`COc1cc(N2CCCCC2)cc(C)c1OCCCN1CCN(c2cccc3sccc23)CC1` [Example 1089]: the Ki was 13.9 nM in series [1] and 1 nM at Dopamine D2 receptor. Also, the “Serotonin uptake inhibitory ratio (%) (300 nM)” value in series [2] is 85.0%.
On to `COc1cc(C(=O)NCC(OC)OC)cc(C)c1OCCCN1CCN(c2cccc3sccc23)CC1` [Example 802], for which the values for the Ki (in series [1]; on Dopamine D2 receptor) were 1.4 nM and 0.6 nM, respectively. Moreover, in series [2], the “Serotonin uptake inhibitory ratio (%) (300 nM)” value came to 96.6%.
Molecule `COC(=O)N1CCN(c2cc(CO)c(OCCCN3CCN(c4cccc5sccc45)CC3)c(OC)c2)CC1` [Example 1087] came in with a melting point of 128 to 130 °C. Also, the Ki in series [1] was 2.6 nM. Further, in series [2], the “Serotonin uptake inhibitory ratio (%) (300 nM)” value came to 97.1%. Also, the Ki on Dopamine D2 receptor was 0.3 nM.
For the molecule `CNc1cc(C)c(OCCCN2CCN(c3cccc4sccc34)CC2)c(OC)c1.Cl` [Example 11, N-methyl-4-[3-(4-benzo[b]thiophen-4-yl-piperazin-1-yl)propoxy]-3-methoxy-5-methylaniline hydrochloride], the melting point is 239.5 to 244 °C (dec.). For the same molecule, in series [1], the Ki was 4.4 nM. Besides, the “Serotonin uptake inhibitory ratio (%) (300 nM)” value in series [2] was 95.2%. Moreover, the Ki on Dopamine D2 receptor is 0.2 nM.
Take `COc1cc(NC(=O)CN)cc(C)c1OCCCN1CCN(c2cccc3sccc23)CC1` [Example 1060]: the Ki in series [1] was 1.2 nM; at Dopamine D2 receptor, 0.1 nM. The “Serotonin uptake inhibitory ratio (%) (300 nM)” value in series [2] turned out to be 97.5%.
`COc1cc(N2CCN(C(C)=O)CC2=O)cc(C)c1OCCCN1CCN(c2cccc3sccc23)CC1` [Example 1079]: the values for the inhibition constant Ki (in series [1]; on Dopamine D2 receptor) were 2.8 nM and 0.4 nM, respectively. Also, in series [2], the “Serotonin uptake inhibitory ratio (%) (300 nM)” value amounted to 82.3%.
As to `COc1cc(N2CCCC2)cc(C)c1OCCCN1CCN(c2cccc3sccc23)CC1` [Example 1076], the Ki was 12.4 nM in series [1] and 1.2 nM on Dopamine D2 receptor. In series [2], the “Serotonin uptake inhibitory ratio (%) (300 nM)” value is 87.8%.
In the case of `CN(C)C(=O)N1CCC(OCCCN2CCN(c3cccc4sccc34)CC2)CC1` [Example 1110], the Ki was 4.9 nM in series [1] and 1.2 nM on Dopamine D2 receptor. The “Serotonin uptake inhibitory ratio (%) (300 nM)” value in series [2] is on record as 38.5%.
With `NCCc1ccc(O)c(O)c1` [dopamine], in series [3], the “quantity of cyclic AMP suppressed to, as the maximum activity” value was “about 10%”.
Regarding `COc1cc(N2CCOC2=O)cc(CO)c1OCCCN1CCN(c2cccc3sccc23)CC1` [Example 1071], the Ki in series [1] was 1.3 nM; on Dopamine D2 receptor it was 0.1 nM. In addition, the “Serotonin uptake inhibitory ratio (%) (300 nM)” value in series [2] is 94.4%.
On to `COc1cc(N2CCN(C(C)=O)CC2)cc(C)c1OCCCN1CCN(c2cccc3sccc23)CC1` [Example 1083], for which the figures for the Ki (in series [1]; at Dopamine D2 receptor) were 1.5 nM and 0.3 nM, respectively. Besides, the “Serotonin uptake inhibitory ratio (%) (300 nM)” value in series [2] turned out to be 96.3%.
With `CN(C)C(=O)c1csc(OCCCN2CCN(c3cccc4sccc34)CC2)n1` [Example 1113], the figures for the inhibition constant Ki (in series [1]; at Dopamine D2 receptor) were 5 nM and 0.7 nM, respectively. In addition, in series [2], the “Serotonin uptake inhibitory ratio (%) (300 nM)” value is 59.3%.
As to `COc1cc(N(C)C)cc(C)c1OCCCN1CCN(c2cccc3sccc23)CC1.Cl` [Example 15, 4-[3-(4-benzo[b]thiophen-4-yl-piperazin-1-yl)propoxy]-N,N-dimethyl-3-methoxy-5-methylaniline hydrochloride], the melting point is 234.5 to 240.5 °C (dec.). Further, the Ki in series [1] is 5.9 nM. Moreover, the “Serotonin uptake inhibitory ratio (%) (300 nM)” value in series [2] is 95.3%. Further, the Ki on Dopamine D2 receptor was 0.4 nM.
As for `COC(=O)N1CCN(c2cc(C=O)c(OCCCN3CCN(c4cccc5sccc45)CC3)c(OC)c2)CC1` [Example 1086], the Ki was 5.8 nM in series [1] and 1 nM at Dopamine D2 receptor. Further, the “Serotonin uptake inhibitory ratio (%) (300 nM)” value in series [2] turned out to be 98.6%.
Turning to `COc1cc(NC(=O)CNC(=O)OC(C)(C)C)cc(C)c1OCCCN1CCN(c2cccc3sccc23)CC1` [Example 1059], the melting point was 140.5 to 142.5 °C. In series [1], the Ki was 3.8 nM. Moreover, the “Serotonin uptake inhibitory ratio (%) (300 nM)” value in series [2] came out at 97.2%. In addition, the Ki at Dopamine D2 receptor was 0.4 nM.
As for `CN(C)c1cc(OCCCCN2CCN(c3cccc4sccc34)CC2)n(C)n1` [Example 1138], the Ki is 19.7 nM in series [1] and 1.4 nM on Dopamine D2 receptor. For the same molecule, the “Serotonin uptake inhibitory ratio (%) (300 nM)” value in series [2] is given as 67.2%.
With `CC(=O)Nc1cc(OCCCN2CCN(c3cccc4sccc34)CC2)n(C)n1` [Example 1106], the Ki in series [1] was 7.1 nM; at Dopamine D2 receptor, 1 nM. Further, the “Serotonin uptake inhibitory ratio (%) (300 nM)” value in series [2] stood at 69.9%.
`COc1cc(NC(=O)CNC(C)=O)cc(C)c1OCCCN1CCN(c2cccc3sccc23)CC1` [Example 1061] had a melting point of 167.5 to 170.5 °C. In series [1], the Ki is 1.2 nM. The “Serotonin uptake inhibitory ratio (%) (300 nM)” value in series [2] amounted to 97.5%. The Ki at Dopamine D2 receptor was 0.1 nM.
As to `COC(=O)N1CCN(c2cc(C)c(OCCCN3CCN(c4cccc5sccc45)CC3)c(OC)c2)C(=O)C1` [Example 1080], the inhibitory constant (Ki) is 3.4 nM in series [1] and 0.6 nM at Dopamine D2 receptor. The “Serotonin uptake inhibitory ratio (%) (300 nM)” value in series [2] is given as 95.6%.
With `O=c1[nH]cnc2ccc(OCCCN3CCN(c4cccc5sccc45)CC3)cc12` [Example 94], the melting point is 213.1 to 218.5 °C. Further, the inhibition constant (Ki) in series [1] is 2 nM. The Ki at Dopamine D2 receptor was 2.4 nM.
For the molecule `CNC(=O)c1cc(OCCCN2CCN(c3cccc4sccc34)CC2)n(C)n1.Cl` [Example 3, N-methyl-5-[3-(4-benzo[b]thiophen-4-yl-piperazin-1-yl)propoxy]-1-methyl-1H-pyrazole-3-carboxamide hydrochloride], the melting point is 228 to 232.5 °C (dec.). The Ki in series [1] is 6 nM. In addition, the inhibition constant (Ki) at Dopamine D2 receptor is 1.5 nM.
The corresponding values for `COc1cc(CN(C)C)ccc1OCCCN1CCN(c2cccc3sccc23)CC1` [Example 301] are 101 to 103 °C, 0.4 nM and 0.2 nM.

The values above are taken from patent US8071600B2, “Derivatives of 4-piperazin-1-yl-4-benzo[B]thiophene suitable for the treatment of CNS disorders” (Otsuka Pharmaceutical Co., Ltd., priority 2005, dated 2011).
